Experiments:
CNR2 = target: T1, CNR2 (Homo sapiens, UniProt P34972); assay: Eurofins SAFETYscan 78-target panel, off-target effects, CNR2; type: biochemical; conditions: antagonist / blocker / inhibitor mode
T1 construct: Eurofins
Description: FIG. 9. Table summarizing the Eurofins analysis of potential off-target effects of M1i-124. […] values above 10 μM are generally considered to be acceptable. FIG. 10. Representative hematoxylin and eosin (H&E) staining of organ sections (lung, heart, kidney, liver and adrenal) from control and M1i-124 treated mice described in FIG. 6.
Studies were performed using the services of Touchstone Biosciences and Eurofins Pharma Discovery Services. […] All blood samples (30-50 ul per sample) were taken via tail vein at 5, 15, and 30 minutes, and 1, 2, 4, 6, 8, and 24 hours after dosing. Blood samples are collected in Greiner MiniCollect K2 EDTA tubes, placed on ice, and within 30 minutes, centrifuged at 15,000 g for 5 minutes to obtain plasma samples. All plasma samples are stored at −70° C. until analysis. Plasma samples were prepared for analysis by LC-MS/MS, and key PK parameters, including terminal half-life (t 112), initial plasma concentration (C0), area under the plasma concentration vs. time curve (AUC), volume of distribution at steady-state (Vss), total plasma clearance (CLp), and mean residence time (MRT), were measured.
Assay details are available through Eurofins.

[1] = test system: IL-6 and IL-10 secretion in OCI-Ly3 cells; assay: IL-6 and IL-10 secretion by OCI-Ly3 cells (ELISA); type: cell-based, human
Description: Expression of cytokines from cell culture supernatants was measured 24h after treatment with 0, 0.01, 0.03, 0.1, 0.3, 1, or 3 uM of compounds using the following ELISA kits according to the manufacturer's instructions: Human IL-2 ELISA (BioLegend Cat #431804), Human IL-6 ELISA (BioLegend Cat #430504), and Human IL-10 ELISA (BioLegend Cat #430604).

T1 sequence (P34972 whole entry): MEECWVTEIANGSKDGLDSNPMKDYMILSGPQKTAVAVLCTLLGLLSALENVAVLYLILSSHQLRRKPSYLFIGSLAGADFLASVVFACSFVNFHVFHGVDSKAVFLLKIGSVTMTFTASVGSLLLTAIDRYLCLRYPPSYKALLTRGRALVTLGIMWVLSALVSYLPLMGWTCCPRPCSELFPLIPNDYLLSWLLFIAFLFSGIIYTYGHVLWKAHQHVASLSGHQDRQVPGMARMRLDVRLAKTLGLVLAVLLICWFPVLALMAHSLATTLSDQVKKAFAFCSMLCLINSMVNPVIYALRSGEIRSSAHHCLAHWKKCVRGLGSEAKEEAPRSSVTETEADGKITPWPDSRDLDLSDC

Structure (SMILES) | IC50 (CNR2) | IL-6 secretion [1] | IL-10 secretion [1]
O=S(=O)(NCc1ccc2c(c1)OCO2)c1ccc(Cc2ccc(S(=O)(=O)NCc3ccc4c(c3)OCO4)cc2)cc1 [M1i-124] | 9.9 µM |  | 
COc1ccc(CNS(=O)(=O)c2ccc(Cc3ccc(S(=O)(=O)NCc4ccc(OC)cc4)cc3)cc2)cc1 [M1i-124d1] |  | inhibit IL-6 and IL-10 secretion in a concentration-dependent manner | inhibit IL-6 and IL-10 secretion in a concentration-dependent manner
